Assay results as given in ChEMBL document CHEMBL1201862, “PubChem BioAssay data set” (2004).
Active and inactive are the calls of the source.

Key:
[1] = molecular target: T1, Ubiquitin-conjugating enzyme E2 N (Homo sapiens, UniProt P61088); assay type: functional;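 note: Dose-response confirmation in a TR-FRET assay detecting UBC13-driven polyubiquitin chain formation, inhibition measured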
T1 sequence (P61088 whole entry): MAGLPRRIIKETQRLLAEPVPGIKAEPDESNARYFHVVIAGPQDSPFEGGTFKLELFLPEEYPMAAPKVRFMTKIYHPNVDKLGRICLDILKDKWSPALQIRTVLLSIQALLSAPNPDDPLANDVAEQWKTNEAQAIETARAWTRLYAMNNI

Vero [2] = assay: host cell viability loss, Vero E6 – synthesized analogs, cytotoxicity control for West Nile virus antiviral project, SAR follow-up (AID 2244); assay type: functional; settings: Chlorocebus sabaeus
Vero [3] = assay: antiviral protection of cells from WNV – synthesized analogs, SAR follow-up (AID 2238); assay type: functional, cell-based; settings: Chlorocebus sabaeus
[4] = A Cell Based Assay for the Identification of Probe candidate Compounds with Anti- Venezuelan Equine Encephalitis virus. [Related pubchem assays: 2409, 2419, 1621, 2238, 2405, 2024, 2065, 2402, 2414, 1635, 1650, 2244 ]; assay type: functional
Vero [5] = assay: Vero cell viability after compound exposure – synthesized analogs, set II, cytotoxicity control for West Nile virus antiviral project, SAR follow-up (AID 2402); assay type: functional; settings: Chlorocebus sabaeus
Vero [6] = assay: Vero 76 cell viability after compound exposure – Vero 76 cells, synthesized analogs, cytotoxicity control for West Nile virus antiviral project, SAR follow-up (AID 2414); assay type: functional; settings: Chlorocebus sabaeus
T-cell = assay: loss of vesicle association with mouse CD8+ T cells – mouse 2C CD8+ T cells, flow cytometry, dose response (AID 485284); assay type: functional
[7] = Luminescence Cell-Based Dose HTS Response to Identify Inhibitors of 5'UTR Stem-Loop Driven Prion Protein mRNA Translation in H4-C Neuroglioblastoma Cells. [Related pubchem assays (depositor defined):AID1814, AID1827]; assay type: functional
BJ [8] = assay: BJ-TERT-LT-ST fibroblast viability loss – cell-based, RAS-independent, luminescence, dose response (AID 1935); assay type: functional; settings: Homo sapiens;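 note: BJ fibroblasts immortalized with TERT plus LT and ST oncogenes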
BJ [9] = assay: cells; assay type: functional, cell-based; settings: Homo sapiens
[10] = DRD fibroblast viability loss – cell-based, non-viral oncogenic, luminescence, dose response (AID 1934); assay type: functional; settings: Homo sapiens
[11] = Luminescence Cell-Based Dose Retest to Confirm Activators of 5'UTR Stem-Loop Driven Alpha-Synuclein mRNA Translation in H4 Neuroglioblastoma Cells. [Related pubchem assays (depositor defined):AID1813, AID1829]; assay type: functional
[12] = alpha-synuclein stem-loop luciferase translation blockers – H4 neuroglioma cells, luminescence, confirmation (AID 1988); assay type: functional, cell-based
cells = assay type: functional, cell-based
[13] = Luminescence Cell-Based Dose Response HTS to Identify Activators of 5'UTR Stem-Loop Driven Prion Protein mRNA Translation in H4-C Neuroglioblastoma Cells. [Related pubchem assays: 1829 (Project Summary), 1814 (Primary HTS)]; assay type: functional
[14] = Luminescence Cell-Based Dose Response HTS to Identify Activators of Luciferase Translation or Activity in H4-C Neuroglioblastoma Cells. [Related pubchem assays: 1829 (Project Summary), 1814 (Primary HTS)]; assay type: functional
[15] = luciferase reporter signal suppression in cells – H4 neuroglioma cells, luminescence, dose response (AID 1990); assay type: functional, cell-based
[16] = Luminescence Cell-Based Dose Response HTS to Identify Inhibitors of Luciferase Translation or Activity in H4-C Neuroglioblastoma Cells. [Related pubchem assays: 1813 (Primary HTS), 1827 (Project Summary)]; assay type: functional
[17] = luciferase reporter signal reduction – luminescence, H4-C neuroglioblastoma cells, dose response (AID 2458); assay type: functional, cell-based;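 note: H4 neuroglioblastoma cells stably carrying a luciferase reporter gene fusion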
[18] = Luminescence Cell-Based Dose Confirmation HTS to Identify Inhibitors of 5'UTR Stem-Loop Driven Alpha-Synuclein mRNA Translation in H4 Neuroglioblastoma Cells. [Related pubchem assays: 1827 (Project Summary), 1813 (Primary HTS)]; assay type: functional
BJ [19] = assay: BJ-TERT fibroblast viability loss – cell-based, RAS-independent, luminescence, dose response (AID 1933); assay type: functional; settings: Homo sapiens
[20] = Luminescence Cell-Based Dose Response HTS to Identify Inhibitors of 5'UTR Stem-Loop Driven Prion Protein mRNA Translation in H4 Neuroglioblastoma Cells. [Related pubchem assays: 1827 (Project Summary), 1813 (Primary HTS)]; assay type: functional
[21] = alpha-synuclein stem-loop translation blockers – luminescence, H4 neuroglioblastoma cells, dose confirmation, confirmation (AID 2454); assay type: functional, cell-based;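 note: H4 neuroglioblastoma cells carrying an alpha-synuclein 5'UTR luciferase reporter; potency for inhibition of the luciferase signal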
[22] = molecular target: T2, Kappa-type opioid receptor (Homo sapiens, UniProt P41145); assay type: functional
T2 sequence (P41145 whole entry): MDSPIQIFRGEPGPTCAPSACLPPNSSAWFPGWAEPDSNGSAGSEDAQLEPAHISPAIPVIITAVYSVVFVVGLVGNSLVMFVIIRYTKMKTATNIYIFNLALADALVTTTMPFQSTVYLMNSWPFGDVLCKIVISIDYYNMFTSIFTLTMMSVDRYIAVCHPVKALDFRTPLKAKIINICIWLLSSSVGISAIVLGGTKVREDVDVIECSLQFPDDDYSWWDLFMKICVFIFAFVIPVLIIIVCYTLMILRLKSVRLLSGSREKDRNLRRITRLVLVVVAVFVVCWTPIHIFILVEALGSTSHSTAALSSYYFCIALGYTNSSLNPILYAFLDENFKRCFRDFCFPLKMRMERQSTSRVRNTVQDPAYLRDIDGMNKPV

[23] = molecular target: T2, Kappa-type opioid receptor; assay type: functional; remark: listed apart in the source
[24] = molecular target: T3, Rac GTPase-activating protein 1 (Homo sapiens, UniProt Q9H0H5); assay: blockers of MgcRacGAP-driven Rac1 GTP hydrolysis – biochemical, ADP Hunter fluorescence, primary and confirmatory, confirmation (AID 624330); assay type: functional
T3 sequence (Q9H0H5 whole entry): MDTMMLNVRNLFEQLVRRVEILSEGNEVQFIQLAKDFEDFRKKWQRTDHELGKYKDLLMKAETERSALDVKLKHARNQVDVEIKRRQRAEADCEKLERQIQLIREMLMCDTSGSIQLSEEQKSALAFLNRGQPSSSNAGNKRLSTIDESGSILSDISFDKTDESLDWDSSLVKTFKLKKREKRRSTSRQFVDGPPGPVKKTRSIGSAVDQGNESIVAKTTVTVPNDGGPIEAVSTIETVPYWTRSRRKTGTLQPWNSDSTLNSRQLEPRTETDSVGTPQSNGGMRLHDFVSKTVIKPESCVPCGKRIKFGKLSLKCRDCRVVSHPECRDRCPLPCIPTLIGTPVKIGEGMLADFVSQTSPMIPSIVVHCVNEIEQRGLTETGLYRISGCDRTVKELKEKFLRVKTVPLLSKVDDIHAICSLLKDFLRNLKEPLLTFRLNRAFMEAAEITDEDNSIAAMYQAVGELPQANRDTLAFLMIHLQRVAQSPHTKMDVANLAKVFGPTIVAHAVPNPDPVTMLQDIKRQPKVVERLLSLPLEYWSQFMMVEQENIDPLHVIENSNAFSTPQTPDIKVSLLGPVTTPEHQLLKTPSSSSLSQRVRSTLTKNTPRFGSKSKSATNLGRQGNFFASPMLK

Insulin-degrading enzyme = molecular target: T4, Insulin-degrading enzyme (Homo sapiens, UniProt P14735); assay: Dose Response: Fluorescence polarization-based cell-based high throughput dose response assay for inhibitors of insulin-degrading enzyme (IDE). [Related pubchem assays: 434962 (Primary screen (IDE inhibitors in singlicate)), 449730 (Counterscreen (Cytotoxicity in triplicate)), 435028 (Confirmation (IDE inhibitors in triplicate)), 434984 (Summary …; assay type: functional
T4 sequence (P14735 whole entry): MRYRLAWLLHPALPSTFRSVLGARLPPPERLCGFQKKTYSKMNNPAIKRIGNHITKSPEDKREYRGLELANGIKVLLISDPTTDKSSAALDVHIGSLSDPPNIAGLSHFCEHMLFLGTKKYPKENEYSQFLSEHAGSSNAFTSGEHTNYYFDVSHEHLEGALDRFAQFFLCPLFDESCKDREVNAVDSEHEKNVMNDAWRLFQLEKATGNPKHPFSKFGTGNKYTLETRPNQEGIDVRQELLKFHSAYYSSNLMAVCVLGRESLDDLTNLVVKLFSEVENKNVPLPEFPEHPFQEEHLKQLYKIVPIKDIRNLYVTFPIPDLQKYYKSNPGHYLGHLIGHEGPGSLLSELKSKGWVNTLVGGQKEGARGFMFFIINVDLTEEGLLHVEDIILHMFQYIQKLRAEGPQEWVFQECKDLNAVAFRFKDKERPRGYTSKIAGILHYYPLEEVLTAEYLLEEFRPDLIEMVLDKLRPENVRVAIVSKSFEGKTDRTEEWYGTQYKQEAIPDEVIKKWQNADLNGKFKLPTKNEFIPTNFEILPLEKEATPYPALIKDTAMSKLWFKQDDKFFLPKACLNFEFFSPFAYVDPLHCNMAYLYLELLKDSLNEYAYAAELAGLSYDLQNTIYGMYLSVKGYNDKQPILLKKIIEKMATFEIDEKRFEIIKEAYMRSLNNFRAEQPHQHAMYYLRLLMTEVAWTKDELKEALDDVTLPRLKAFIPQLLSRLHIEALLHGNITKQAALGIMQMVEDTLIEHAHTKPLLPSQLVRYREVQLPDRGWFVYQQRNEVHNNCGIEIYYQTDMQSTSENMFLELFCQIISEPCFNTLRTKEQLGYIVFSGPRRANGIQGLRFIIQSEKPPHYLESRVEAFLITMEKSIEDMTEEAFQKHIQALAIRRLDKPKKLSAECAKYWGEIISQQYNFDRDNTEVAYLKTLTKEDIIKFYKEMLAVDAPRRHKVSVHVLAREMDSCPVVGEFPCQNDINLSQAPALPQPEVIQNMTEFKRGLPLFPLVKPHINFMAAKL

Beta-galactosidase = Beta-galactosidase (Escherichia coli, UniProt Q8VNN2); assay type: functional
Chain of Beta-galactosidase (Q8VNN2 whole entry): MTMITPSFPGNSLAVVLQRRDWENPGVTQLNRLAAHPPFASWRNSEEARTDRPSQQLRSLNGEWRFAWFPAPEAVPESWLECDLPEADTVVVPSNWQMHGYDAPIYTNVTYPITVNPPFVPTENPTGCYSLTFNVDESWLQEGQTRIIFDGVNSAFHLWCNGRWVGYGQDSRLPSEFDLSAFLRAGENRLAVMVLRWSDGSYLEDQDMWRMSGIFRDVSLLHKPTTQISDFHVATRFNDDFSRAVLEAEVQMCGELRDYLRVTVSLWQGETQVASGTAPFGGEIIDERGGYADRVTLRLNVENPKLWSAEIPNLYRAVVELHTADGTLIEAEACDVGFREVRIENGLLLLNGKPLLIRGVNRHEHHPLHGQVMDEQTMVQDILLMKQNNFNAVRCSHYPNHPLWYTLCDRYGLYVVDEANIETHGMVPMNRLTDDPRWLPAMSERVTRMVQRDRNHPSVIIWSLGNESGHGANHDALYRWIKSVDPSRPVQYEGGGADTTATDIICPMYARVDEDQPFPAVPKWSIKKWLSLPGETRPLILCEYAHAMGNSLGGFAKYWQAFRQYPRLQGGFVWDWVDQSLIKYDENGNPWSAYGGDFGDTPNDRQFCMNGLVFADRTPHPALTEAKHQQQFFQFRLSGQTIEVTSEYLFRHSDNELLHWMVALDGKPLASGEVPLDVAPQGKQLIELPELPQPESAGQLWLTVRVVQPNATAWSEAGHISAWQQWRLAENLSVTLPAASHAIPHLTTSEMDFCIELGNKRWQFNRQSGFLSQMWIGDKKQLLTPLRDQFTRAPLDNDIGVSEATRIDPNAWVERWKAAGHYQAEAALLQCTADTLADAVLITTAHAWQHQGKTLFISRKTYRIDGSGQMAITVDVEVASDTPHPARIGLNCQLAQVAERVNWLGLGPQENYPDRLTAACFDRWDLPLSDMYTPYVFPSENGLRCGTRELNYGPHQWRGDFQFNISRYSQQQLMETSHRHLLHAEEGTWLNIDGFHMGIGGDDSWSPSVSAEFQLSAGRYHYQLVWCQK

Prothrombin = Prothrombin (Bos taurus, UniProt P00735); assay: thrombin protease inhibitors – biochemical, fluorescence polarization, uHTS hits, dose response (AID 602369); assay type: functional
[25] = molecular target: 26S proteasome non-ATPase regulatory subunit 14 (Homo sapiens, UniProt O00487); assay: inhibition of proteasome subunit RPN11 – biochemical, fluorescence polarization, uHTS hits, confirmation (AID 602368); assay type: functional
Chain of 26S proteasome non-ATPase regulatory subunit 14 (O00487 whole entry): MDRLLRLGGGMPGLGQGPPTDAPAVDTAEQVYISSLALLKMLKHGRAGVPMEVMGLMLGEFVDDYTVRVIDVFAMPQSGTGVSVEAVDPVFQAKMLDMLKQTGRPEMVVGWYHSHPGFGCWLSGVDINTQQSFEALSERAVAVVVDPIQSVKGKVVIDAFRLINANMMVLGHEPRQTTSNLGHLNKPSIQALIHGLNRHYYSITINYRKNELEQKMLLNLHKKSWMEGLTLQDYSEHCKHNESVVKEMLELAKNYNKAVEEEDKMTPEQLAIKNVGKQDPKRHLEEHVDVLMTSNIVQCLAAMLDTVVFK

[26] = molecular target: 72 kDa type IV collagenase (Homo sapiens, UniProt P08253); assay: Dose Response validation of uHTS RPN11 inhibitor hits using a MMP-2 Fluorescence assay.; assay type: functional
Chain of 72 kDa type IV collagenase (P08253 whole entry): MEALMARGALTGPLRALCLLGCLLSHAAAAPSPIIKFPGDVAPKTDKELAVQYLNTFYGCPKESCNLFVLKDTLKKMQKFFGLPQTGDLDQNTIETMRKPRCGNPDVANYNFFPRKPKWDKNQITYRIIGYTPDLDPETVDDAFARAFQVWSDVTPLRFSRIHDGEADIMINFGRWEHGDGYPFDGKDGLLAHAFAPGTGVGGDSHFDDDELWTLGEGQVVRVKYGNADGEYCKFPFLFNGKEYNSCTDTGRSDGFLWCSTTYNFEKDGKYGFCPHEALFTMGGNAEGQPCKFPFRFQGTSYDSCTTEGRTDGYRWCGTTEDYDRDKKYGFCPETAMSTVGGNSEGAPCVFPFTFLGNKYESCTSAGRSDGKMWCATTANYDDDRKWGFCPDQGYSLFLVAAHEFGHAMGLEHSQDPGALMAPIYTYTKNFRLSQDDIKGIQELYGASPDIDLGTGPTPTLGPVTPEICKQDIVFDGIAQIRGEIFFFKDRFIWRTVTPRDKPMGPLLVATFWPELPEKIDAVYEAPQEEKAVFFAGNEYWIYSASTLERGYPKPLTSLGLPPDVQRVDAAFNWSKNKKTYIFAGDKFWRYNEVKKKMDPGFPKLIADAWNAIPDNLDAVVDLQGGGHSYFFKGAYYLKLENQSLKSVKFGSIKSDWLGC

[27] = Counterscreen for IDE inhibitors: Luminescence-based cell-based high throughput dose response assay to identify compounds that are cytotoxic to HEK cells. [Related pubchem assays: 434962 (Primary screen (IDE inhibitors in singlicate)), 449730 (Counterscreen (Cytotoxicity in triplicate)), 435028 (Confirmation (IDE inhibitors in triplicate)) …; assay type: functional; settings: HEK293
[28] = antiviral efficacy against SV40, host toxicity – BSC cells, set 3, confirmation (AID 485276); assay type: functional, cell-based
[29] = HEK-293T viability loss after treatment – luminescence, T-cell screen hits, cytotoxicity control for TCR NF-kB inhibitor project, dose response (AID 489026); assay type: functional, cell-based;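 note: cells exposed to compound about 14 hours before the viability readout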
[30] = molecular target: E3 ubiquitin-protein ligase Mdm2/Protein Mdm4 (Homo sapiens, UniProt O15151+Q00987); assay: disruption of Mdm2/MdmX protein binding – luminescence detection, dose response (AID 504593); assay type: functional
Chain of E3 ubiquitin-protein ligase Mdm2/Protein Mdm4 (Q00987 whole entry): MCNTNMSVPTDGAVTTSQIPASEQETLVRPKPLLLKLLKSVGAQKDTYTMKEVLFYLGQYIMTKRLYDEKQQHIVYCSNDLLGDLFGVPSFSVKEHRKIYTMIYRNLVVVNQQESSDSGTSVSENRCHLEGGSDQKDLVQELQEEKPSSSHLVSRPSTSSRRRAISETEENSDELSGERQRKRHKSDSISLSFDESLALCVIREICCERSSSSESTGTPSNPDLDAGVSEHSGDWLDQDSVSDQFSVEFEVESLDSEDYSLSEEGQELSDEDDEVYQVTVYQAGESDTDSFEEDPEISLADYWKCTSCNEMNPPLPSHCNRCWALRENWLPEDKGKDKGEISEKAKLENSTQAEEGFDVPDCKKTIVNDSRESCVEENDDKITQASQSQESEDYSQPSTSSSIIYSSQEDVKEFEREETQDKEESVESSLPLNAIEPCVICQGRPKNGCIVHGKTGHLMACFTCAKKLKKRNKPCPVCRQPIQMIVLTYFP
Chain of E3 ubiquitin-protein ligase Mdm2/Protein Mdm4 (O15151 whole entry): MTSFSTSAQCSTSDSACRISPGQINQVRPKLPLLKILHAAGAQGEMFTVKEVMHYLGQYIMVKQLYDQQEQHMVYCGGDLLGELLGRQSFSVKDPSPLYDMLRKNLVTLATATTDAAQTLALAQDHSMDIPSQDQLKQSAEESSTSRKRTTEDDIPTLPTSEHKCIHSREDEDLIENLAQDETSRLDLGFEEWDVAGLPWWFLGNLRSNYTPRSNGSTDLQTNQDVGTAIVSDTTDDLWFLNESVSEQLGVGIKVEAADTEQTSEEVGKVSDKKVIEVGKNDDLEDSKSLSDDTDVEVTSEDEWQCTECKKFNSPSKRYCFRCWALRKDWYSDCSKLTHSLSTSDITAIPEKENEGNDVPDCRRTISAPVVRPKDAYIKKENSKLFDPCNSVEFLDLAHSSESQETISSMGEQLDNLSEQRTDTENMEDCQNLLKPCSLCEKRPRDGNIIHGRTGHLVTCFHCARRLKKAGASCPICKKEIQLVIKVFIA

Structure (SMILES): CCCN1CCN(CCCNC(=O)c2cc3c(s2)-c2c(C)cccc2OC3)CC1
- IC50 [1]: > 20 µM (inactive)
- CC50 (Vero [2]): 12.4 µM (active)
- IC50 (Vero [3]): > 40 µM (active)
- IC50 [4]: 10.4 µM (active)
- CC50 (Vero [5]): 12.3 µM (active)
- CC50 (Vero [6]): 28.4 µM (active)

Structure (SMILES): O=C(CS(=O)(=O)Cc1ccccc1)N1CCc2ccccc21
- EC50 (T-cell): 14.1 µM (active)

Structure (SMILES): Cc1ccc(-c2cc(C(=O)N/N=C/c3c(C)nn(-c4ccccc4)c3C)[nH]n2)s1
- EC50 [7]: 1.23 µM (active)
- EC50 (BJ [8]): 0.396 µM (inconclusive)
- EC50 (BJ [9]): 46.3 µM (inconclusive)
- EC50 [10]: 20 µM (inconclusive)
- EC50 [11]: 2.69 µM (inconclusive)
- EC50 [12]: < 0.1 µM (active)
- EC50 (cells): 4.24 µM (active)
- EC50 [13]: 0.509 µM (inconclusive)
- EC50 [14]: 1.16 µM (inconclusive)
- EC50 [15]: 6.26 µM (inconclusive)
- EC50 [16]: 0.806 µM (active)
- EC50 [17]: 1.71 µM (active)
- EC50 [18]: 1.38 µM (active)
- EC50 (BJ [19]): 0.413 µM (active)
- EC50 [20]: 11.6 µM (active)
- EC50 [21]: 6.08 µM (active)

Structure (SMILES): COc1cc(/C=C2/SC(=S)N(c3c(C)n(C)n(-c4ccccc4)c3=O)C2=O)ccc1O
- IC50 [22]: > 32 µM
- IC50 [23]: 12.7 µM (active)
- IC50 [24]: 43.7 µM (active)
- IC50 (Insulin-degrading enzyme): 7.99 µM (active)
- EC50 (Beta-galactosidase): 13 µM (active)
- IC50 (Prothrombin): 68.1 µM (active)
- IC50 [25]: 24.4 µM (active)
- IC50 [26]: 62.4 µM (active)
- IC50 [27]: > 55.7 µM (not active)

Structure (SMILES): CC(C)(c1ccc(O)cc1)c1ccc(O)cc1 [BISPHENOL A]
- IC50 [28]: 9.3 µM (active)

Structure (SMILES): CCOC(=O)c1ccc(Nc2nc(N)c3cc(OC)c(OC)cc3n2)cc1
- IC50 [29]: > 80 µM (inactive)
- IC50 [30]: > 79 µM (inactive)
